Reference: patent publication US20230242584A1, “NOVEL POLYPEPTIDES WITH SKIN WHITENING ACTIVITY AND USE THEREOF” (Metapore Co., Ltd., priority 2019, published 2023)

Assays:
[1] = tested on: B16F10 cells; assay: Melanin assay (melanin inhibitory effect); format: cell-based; details: 10 μM polypeptide, α-MSH 0.5 μM, 24 hours, absorbance 490 nm, control 10 μM arbutin, FIG. 1
Procedure: B16F10 cells (6×10^4 cells/well) were aliquoted into 6-well plates and incubated. After 12 hours, the medium was changed to a medium containing α-MSH (Sigma, 0.5 μM) and the test substance (each of the polypeptides or control substances of the present invention). Each 10 μM of polypeptides were treated. In addition, 10 μM of arbutin, which is widely known as a skin whitening ingredient, was used as a control. After incubation for 24 hours, cells were harvested. The number of cells was confirmed using a C-chip (disposable hemacytometer, […]). Cells (1×10^5 cells) were lysed with 1N NaOH at 70° C. for 1 hour. After centrifugation at 4,000 rpm for 5 minutes, the supernatant was harvested and the melanin content was measured. The absorbance of melanin was measured at 490 nm using a microplate reader (Synergy 2, BioTek).

[2] = biological target: T1, tyrosinase (Mus musculus, UniProt P11344); assay: Tyrosinase activity assay (tyrosinase inhibitory effect); format: cell-based; details: 10 μM polypeptide, α-MSH 0.5 μM, 24 hours, B16F10 cell lysate with 5 mM L-DOPA; control 10 μM arbutin; FIG. 2
T1 construct: Cells were lysed with PBS buffer containing 1% Triton X-100 (Sigma); endogenous in cells; host or cells: B16F10 cells, stimulated with alpha-MSH
T1 sequence (P11344 19-533): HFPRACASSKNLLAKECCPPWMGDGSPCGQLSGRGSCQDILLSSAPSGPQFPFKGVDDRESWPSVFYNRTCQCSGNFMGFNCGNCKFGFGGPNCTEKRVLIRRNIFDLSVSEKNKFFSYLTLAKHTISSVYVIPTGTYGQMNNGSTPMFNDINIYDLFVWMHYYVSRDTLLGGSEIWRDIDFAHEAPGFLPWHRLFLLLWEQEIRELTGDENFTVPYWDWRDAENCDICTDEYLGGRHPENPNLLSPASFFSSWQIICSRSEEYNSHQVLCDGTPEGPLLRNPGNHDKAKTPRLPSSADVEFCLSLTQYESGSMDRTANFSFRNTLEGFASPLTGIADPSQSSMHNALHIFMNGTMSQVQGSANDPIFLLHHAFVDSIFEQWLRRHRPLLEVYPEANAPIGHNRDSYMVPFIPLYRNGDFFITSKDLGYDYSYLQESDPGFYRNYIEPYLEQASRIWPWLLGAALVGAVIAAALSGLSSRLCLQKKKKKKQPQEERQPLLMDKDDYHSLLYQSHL
Procedure: B16F10 cells (6×10^4 cells/well) were aliquoted into 6-well plates and incubated. After 12 hours, the medium was changed to a medium containing a-MSH (Sigma, 0.5 μM) and the test substance (each of the polypeptides or control substances of the present invention). Each 10 μM of polypeptides were treated. In addition, 10 μM of arbutin, which is widely known as a skin whitening ingredient, was used as a control. After incubation for 24 hours, cells were harvested. Cells were lysed with PBS buffer containing 1% Triton X-100 (Sigma). After centrifugation at 12,000 rpm for 20 minutes, the supernatant was harvested and the protein concentration was measured by BCA assay kit (Thermo Fisher Scientific). To measure tyrosinase activity, 50 μg of protein (protein contained in the supernatant) was incubated at 37° C. with 5 mM L-DOPA. Absorbance was measured at 490 nm using a microplate reader (Synergy 2, BioTek). Absorbance was measured every 10 minutes for 1 hour.

Row | Sequence | inhibitory effect of melanin production [1] | inhibitory effect of tyrosinase [2]
1 | LKEKAILQATLREEK (peptide fragment from AIMP1(AIMP1 32aa - 46aa)) [Peptide S10] | completely absent | insignificant
2 | ADQIIEYLKQQVSLL (amino acid sequence of peptide for skin whitening (AIMP1 18aa - 32aa)) [Peptide S2] | better inhibitory effect of melanin production than arbutin | same level of the inhibitory effect of tyrosinase as arbutin
